Here are results for 27 compounds from patent US11168086B2, “Methods of synthesizing pyrazine compounds” (Hoffmann-La Roche Inc., priority 2015, dated 2021).

By EC50 is commonly meant the concentration that produces a half-maximal response. A low value points to a more potent agent.

One assay concerns HBV. In words: HBV inhibition assay: anti-HBV activity in vitro in HepG2.2.15 cells (extracellular HBV DNA by qPCR). The class given is cell-based. The note with it: Hepatitis B virus, 120 h, five days after compound treatment, extracellular HBV DNA in culture supernatant by qPCR, concentration at which HBV replication is inhibited by 50%. The text has this:
Example 441: HBV Inhibition Assays
Cell Line and Culture Conditions:
HepG2.2.15 is a stably-transfected cell line containing the HBV genome. It is derived from the hepatoblastoma cell line Hep G2 (American Type Culture Collection, ATCC® HB-8065™) by the published procedures described in reference: MA Selles et al. Proc. Natl. Acad. Sci. USA 1987, 84, 1005-1009. The cell line was maintained in Dulbecco's modified Eagle's medium (DMEM)-F12 medium supplemented with 10% fetal bovine serum, 100 U/mL penicillin, 100 μg/mL streptomycin, and 0.5 mg/mL of G418.
Anti-HBV Activity In Vitro:
HepG2.2.15 cells were seeded into 96-well plates (3×10^4 cells in 100 μL media per well) and incubated overnight at 37° C. The test compounds were serially half-log diluted in DMSO, then diluted 100 times in culture media. 100 μL diluted compounds were added into the plates to reach 0.5% final concentration of DMSO in every well. Five days after compound treatment, culture supernatant was collected for further analysis.
For quantitative PCR detection of extracellular HBV DNA, culture supernatant was processed by Proteinase K digestion. After heat inactivation of the enzyme, the samples were subjected to HBV DNA quantification by qPCR. The effective compound concentration at which
HBV replication is inhibited by 50% (EC50) was determined.
As for `O=C(Nc1ccc(F)cc1)N1CCn2ncc(-c3ccccc3F)c2C1` [Example 33, 3-(2-fluorophenyl)-N-(4-fluorophenyl)-6,7-dihydro-4H-pyrazolo[1,5-a]pyrazine-5-carboxamide], the EC50 amounted to 85 nM.

`CO[C@@H]1CC(=O)N(c2cnn3c2CN(C(=O)Nc2cc(F)c(F)c(F)c2)[C@@H](C)C3)C1` [Example 379, (6S)-3-[(4R)-4-methoxy-2-oxo-pyrrolidin-1-yl]-6-methyl-N-(3,4,5-trifluorophenyl)-6,7-dihydro-4H-pyrazolo[1,5-a]pyrazine-5-carboxamide] had an EC50 of 38 nM.

Regarding `C[C@H]1Cn2ncc(N3CC(C(=O)N(C)C)CC3=O)c2CN1C(=O)Nc1cc(F)c(F)c(F)c1` (stereo partly drawn) [Example 390, (6S)-3-[4-(dimethylcarbamoyl)-2-oxo-pyrrolidin-1-yl]-6-methyl-N-(3,4,5-trifluorophenyl)-6,7-dihydro-4H-pyrazolo[1,5-a]pyrazine-5-carboxamide], a half-maximal response (EC50) required 103 nM.

In the case of `C[C@H]1Cn2ncc(N3CC(c4nccs4)CC3=O)c2CN1C(=O)Nc1cc(F)c(F)c(F)c1` (stereo partly drawn) [Example 291, (6S)-6-methyl-3-(2-oxo-4-thiazol-2-yl-pyrrolidin-1-yl)-N-(3,4,5-trifluorophenyl)-6,7-dihydro-4H-pyrazolo[1,5-a]pyrazine-5-carboxamide], the EC50 was 7 nM.

Consider `CC1CCC(=O)N(c2cnn3c2CN(C(=O)Nc2cc(F)c(F)c(F)c2)[C@@H](C)C3)C1` (stereo partly drawn) [Example 358, (6S)-6-methyl-3-(5-methyl-2-oxo-1-piperidyl)-N-(3,4,5-trifluorophenyl)-6,7-dihydro-4H-pyrazolo[1,5-a]pyrazine-5-carboxamide], for which a half-maximal effect (EC50) was put at 43 nM. This EC50 is about 6.1-fold higher than that of the compound before.

Turning to `C[C@H]1Cn2ncc(N3CCNC3=O)c2CN1C(=O)Nc1cc(F)c(F)c(C(F)F)c1` [Example 373, (6S)—N-[3-(difluoromethyl)-4,5-difluoro-phenyl]-6-methyl-3-(2-oxoimidazolidin-1-yl)-6,7-dihydro-4H-pyrazolo[1,5-a]pyrazine-5-carboxamide], the response was half-maximal at 22 nM (EC50).

For the compound `C[C@H]1[C@H](C)n2ncc(N3CCNC3=O)c2CN1C(=O)Nc1cc(F)c(F)c(F)c1` [Example 273, (6S,7S)-6,7-dimethyl-3-(2-oxoimidazolidin-1-yl)-N-(3,4,5-trifluorophenyl)-6,7-dihydro-4H-pyrazolo[1,5-a]pyrazine-5-carboxamide], the EC50 was 39 nM.

`N#Cc1cc(NC(=O)N2CCn3cnc(-c4ccc(F)cc4F)c3C2)ccc1F` [Example 136, N-(3-cyano-4-fluoro-phenyl)-1-(2,4-difluorophenyl)-6,8-dihydro-5H-imidazo[1,5-a]pyrazine-7-carboxamide]: the EC50 was found to be 56 nM.

The compound `C[C@H]1Cn2ncc(N3CC(C)(CO)CC3=O)c2CN1C(=O)Nc1cc(F)c(F)c(F)c1` (stereo partly drawn) [Example 362, (6S)-3-[4-(hydroxymethyl)-4-methyl-2-oxo-pyrrolidin-1-yl]-6-methyl-N-(3,4,5-trifluorophenyl)-6,7-dihydro-4H-pyrazolo[1,5-a]pyrazine-5-carboxamide] had an EC50 of 32 nM. Against the preceding compound, the EC50 is about 1.8-fold lower.

For `C[C@H]1Cn2ncc(N3CC(c4cocn4)OC3=O)c2CN1C(=O)Nc1cc(F)c(F)c(F)c1` (stereo partly drawn) [Example 348, (6S)-6-methyl-3-(5-oxazol-4-yl-2-oxo-oxazolidin-3-yl)-N-(3,4,5-trifluorophenyl)-6,7-dihydro-4H-pyrazolo[1,5-a]pyrazine-5-carboxamide], the response was half-maximal at 94 nM (EC50).

`C[C@H]1Cn2ncc(N3C[C@@H](Oc4ncccn4)[C@H](O)C3=O)c2CN1C(=O)Nc1cc(F)c(F)c(F)c1` [Example 428, (6S)-3-[(3S,4R)-3-hydroxy-2-oxo-4-pyrimidin-2-yloxy-pyrrolidin-1-yl]-6-methyl-N-(3,4,5-trifluorophenyl)-6,7-dihydro-4H-pyrazolo[1,5-a]pyrazine-5-carboxamide]: the EC50 was determined as 6 nM.

`O=C(Nc1ccc(F)c(Cl)c1)N1CCn2ncc(N3CC4CC4C3)c2C1` (stereo not drawn) [Example 215, 3-[3-azabicyclo[3.1.0]hexan-3-yl]-N-(3-chloro-4-fluoro-phenyl)-6,7-dihydro-4H-pyrazolo[1,5-a]pyrazine-5-carboxamide] gave an EC50 of 100 nM.

`CC1Cn2ncc(-n3cc(F)cn3)c2CN1C(=O)Nc1ccc(F)c(Cl)c1` (stereo not drawn) [Example 201, N-(3-chloro-4-fluoro-phenyl)-3-(4-fluoropyrazol-1-yl)-6-methyl-6,7-dihydro-4H-pyrazolo[1,5-a]pyrazine-5-carboxamide]: the EC50 amounted to 13 nM.

Compound `Cc1cnn(-c2cnn3c2CN(C(=O)Nc2ccc(F)c(Cl)c2)C(C)C3)c1` (stereo not drawn) [Example 199, N-(3-chloro-4-fluoro-phenyl)-6-methyl-3-(4-methylpyrazol-1-yl)-6,7-dihydro-4H-pyrazolo[1,5-a]pyrazine-5-carboxamide] registered an EC50 of 30 nM. This EC50 lies about 2.3-fold higher than the previous one.

`C[C@H]1Cn2ncc(N3CC4(CCC4)CC3=O)c2CN1C(=O)Nc1cc(F)c(F)c(F)c1` [Example 421, (6S)-6-methyl-3-(7-oxo-6-azaspiro[3.4]octan-6-yl)-N-(3,4,5-trifluorophenyl)-6,7-dihydro-4H-pyrazolo[1,5-a]pyrazine-5-carboxamide] came in with an EC50 of 14 nM.

The compound `C[C@H]1[C@H](C)n2ncc(N3CCOCC3=O)c2CN1C(=O)Nc1cc(F)c(F)c(F)c1` [Example 274, (6S,7S)-6,7-dimethyl-3-(3-oxomorpholin-4-yl)-N-(3,4,5-trifluorophenyl)-6,7-dihydro-4H-pyrazolo[1,5-a]pyrazine-5-carboxamide] had an EC50 of 40 nM.

Regarding `O=C(Nc1ccc(F)c(Cl)c1)N1CCn2ncc(C3CCCCC3)c2C1` [Example 73, N-(3-chloro-4-fluoro-phenyl)-3-cyclohexyl-6,7-dihydro-4H-pyrazolo[1,5-a]pyrazine-5-carboxamide], the EC50 came to 45 nM.

In turn, `C[C@H]1Cn2ncc(N3CN(C(=O)c4ccccc4)CC3=O)c2CN1C(=O)Nc1cc(F)c(F)c(F)c1` [Example 275, (6S)-3-(3-benzoyl-5-oxo-imidazolidin-1-yl)-6-methyl-N-(3,4,5-trifluorophenyl)-6,7-dihydro-4H-pyrazolo[1,5-a]pyrazine-5-carboxamide] registered an EC50 of 64 nM.

As to `CC1Cn2ncc(-n3cc(C#N)cn3)c2CN1C(=O)Nc1ccc(F)c(Cl)c1` (stereo not drawn) [Example 200, N-(3-chloro-4-fluoro-phenyl)-3-(4-cyanopyrazol-1-yl)-6-methyl-6,7-dihydro-4H-pyrazolo[1,5-a]pyrazine-5-carboxamide], the midpoint of the response, the EC50, lay at 38 nM.

Regarding `C[C@H]1Cn2ncc(N3CCOCC3=O)c2CN1C(=O)Nc1cc(F)c(F)c(F)c1` [Example 233, (6S)-6-methyl-3-(3-oxomorpholin-4-yl)-N-(3,4,5-trifluorophenyl)-6,7-dihydro-4H-pyrazolo[1,5-a]pyrazine-5-carboxamide], the midpoint of the response, the EC50, lay at 76 nM.

In turn, `C[C@H]1Cn2ncc(N3CC4(CCC4)OC3=O)c2CN1C(=O)Nc1cc(F)c(F)c(F)c1` [Example 332, (6S)-6-methyl-3-(6-oxo-5-oxa-7-azaspiro[3.4]octan-7-yl)-N-(3,4,5-trifluorophenyl)-6,7-dihydro-4H-pyrazolo[1,5-a]pyrazine-5-carboxamide] displayed a half-maximal effective concentration (EC50) of 11 nM.

Turning to `C[C@H]1Cn2ncc(N3CC(Cn4cccn4)CC3=O)c2CN1C(=O)Nc1cc(F)c(F)c(F)c1` (stereo partly drawn) [Example 268, (6S)-6-methyl-3-[2-oxo-4-(pyrazol-1-ylmethyl)pyrrolidin-1-yl]-N-(3,4,5-trifluorophenyl)-6,7-dihydro-4H-pyrazolo[1,5-a]pyrazine-5-carboxamide], it took 96 nM to reach a half-maximal effect (EC50). Against the preceding compound, the EC50 is about 8.7-fold higher.

Take `CC1Cn2ncc(-c3ccc(F)cn3)c2CN1C(=O)Nc1cc(F)c(F)c(F)c1` (stereo not drawn) [Example 99, 3-(5-fluoro-2-pyridyl)-6-methyl-N-(3,4,5-trifluorophenyl)-6,7-dihydro-4H-pyrazolo[1,5-a]pyrazine-5-carboxamide]: the EC50 is 24 nM.

In turn, `Cc1noc(C2(C)CC(=O)N(c3cnn4c3CN(C(=O)Nc3cc(F)c(F)c(F)c3)[C@@H](C)C4)C2)n1` (stereo partly drawn) [Example 405, (6S)-6-methyl-3-[4-methyl-4-(3-methyl-1,2,4-oxadiazol-5-yl)-2-oxo-pyrrolidin-1-yl]-N-(3,4,5-trifluorophenyl)-6,7-dihydro-4H-pyrazolo[1,5-a]pyrazine-5-carboxamide] came in with an EC50 of 10 nM.

In turn, `CC1Cn2ncc(-c3ccc(F)cn3)c2CN1C(=O)Nc1cc(F)c(F)c(Cl)c1` (stereo not drawn) [Example 158, N-(3-chloro-4,5-difluoro-phenyl)-3-(5-fluoro-2-pyridyl)-6-methyl-6,7-dihydro-4H-pyrazolo[1,5-a]pyrazine-5-carboxamide] gave an EC50 of 44 nM. Compared with the last compound, the EC50 is about 4.4-fold higher.

Compound `C[C@H]1Cn2ncc(N3CC(C(=O)N4CCC(F)(F)C4)CC3=O)c2CN1C(=O)Nc1cc(F)c(F)c(F)c1` (stereo partly drawn) [Example 398, (6S)-3-[4-(3,3-difluoropyrrolidine-1-carbonyl)-2-oxo-pyrrolidin-1-yl]-6-methyl-N-(3,4,5-trifluorophenyl)-6,7-dihydro-4H-pyrazolo[1,5-a]pyrazine-5-carboxamide] registered an EC50 of 80 nM.

The assay is the same for the next values; noted with them: five days after compound treatment, extracellular HBV DNA in culture supernatant by qPCR, concentration at which HBV replication is inhibited by 50%.
Regarding `CC1C(C#N)CC(=O)N1c1cnn2c1CN(C(=O)Nc1cc(F)c(F)c(F)c1)[C@@H](C)C2` (single isomer, unassigned) [Example 420-2], a half-maximal response (EC50) required 30 nM.
